Results as given in patent US9120849B2 (priority 2000, dated 2015).
Read-outs that look alike come from different tables or passages of the source.

Key:
HIV = details: for HIV p24 protein in culture supernatants: CEM cells
Description: This example describes one method of inactivation of the purified virus according to the invention by crosslinking of surface proteins. […] Titrations of the fixative were preformed above and below the concentration recommended by the CDC for inactivation of virus in biological fluids (May 8, 1992/41 (RR-8); 001 CDC Guidelines for the Performance of CD4+ T-Cell Determinations in Persons with Human Immunodeficiency Virus Infection). Initially, purified virus was slowly thawed at 2-8° C. for 6-8 hours to minimize lysis of the virus. Next, while on ice, virus was diluted with cold PBS to a final concentration of approximately 1×10^10 copies/mL (cp/mL). […] The reaction mixtures were then incubated at 2-8° C. for 60 minutes while gently rocking. […] After the addition of glycine the reactions were gently rocked for 2 hr. at 2-8° C. To remove glycine and any excess unquenched fixative each reaction mixture was then dialyzed (10-14K m.w. cutoff) against 1 L PBS (pH 7.4, 2-8° C.) for 4 changes. Dialyzed virus was then transferred into a 15 mL tube and centrifuged for 10 min. at 3,000×g to pellet any precipitated virus. A sample of each supernatant was then tested in cell culture for the presence of infectious virus.
The modified virus produced as described in Example 2 was tested to ensure the process inactivated the virus. As an illustration, the CEM cell line, obtained from the American Type Culture Collection was used as a host cell for viral infectivity studies. Advantages of using this line are that establishment of in vitro HIV infection requires relatively few virions and that the infection is chronic rather than lytic, facilitating analysis. For these studies, infection is detected and followed using the ZeptoMetrix HIV p24 Antigen EIA (ZeptoMetrix, Buffalo N.Y.).
CEM cells are cultured in RPMI-1640 containing 10% FBS in 24 well plates Cells are plated at 10^5 cells per well in a 1 ml volume and 100 ul of various dilutions of virus, either treated or untreated, are added to individual wells. Cultures are fed twice weekly by 50% media replacement and culture supernatants are assayed for HIV p24. All cultures initially contain HIV p24. However, in cultures where virus is noninfectious HIV p24 levels decrease over time eventually reaching background levels.
Different dilutions (1:8,000, 1:80,000, and 1:800,000) of treated virus were then placed into cultures of CEM cells and p24 assays were performed on culture supernatants on days 3, 7, 10, and 14 post-inoculation. Data are expressed as pg/ml of HIV p24 protein in the culture supernatants. The standard curve for the p24 assay is linear from 7.8 pg/ml to 125 pg/ml. HIV p24 concentrations below 7.8 pg/ml are expressed as “<7.8 pg/ml” to indicate sensitivity of the assay, and values above 125 pg/ml are expressed as “>125 pg/ml” since the assay is nonlinear above 125 pg/ml.

[1] = system: duck hepatitis B virus (DHBV); details: 60 minutes, 20° C., Reed and Muench
Description: This model uses primary duck hepatocytes (PDHs) as host (Pugh et al., 1999). We isolated and maintained PDHs from less than one week-old seronegative White Pekin ducklings (Anas dornesticus) with modifications from previous procedures (Berry and Friend, 1969, Seglen. 1976, Pugh and Summers, 1989, Pugh et al., 2000, Tuttleman et al., 1986). Briefly, ducks were euthanized by exposing them to C02 and livers were perfused twice via the atrium of the heart with approximately 200 mL each of two solutions. The first solution consisted of SWIM's S-77 medium (Sigma) supplemented with 0.5 mmol/L EGTA, 2 mmol/L Hepes (pH 7.45) and 50 ug/mL penicillin and streptomycin (Biofluids, Rockville, Md.). The second solution contained SWIM's S-77 medium supplemented with 2.5 mmol/L CaCl2, 0.5 mg of collagenase/mL (type I, Sigma, St. Louis) and 50 ug/mL penicillin and streptomycin. These perfusates were administered at approximately 15 mL/minute using a peristaltic pump and the temperature of the perftisate was adjusted to maintain the liver at 37° C. The liver was removed, minced with scissors and repeatedly mixed with a 25 mL pipette for hepatocyte dispersion into complete L-15 medium (Biofluids, Rockville, Md.) supplemented with 0.05-percent (w/v) sodium bicarbonate (Biofluids), 1 mmol/L glutamine (Biofluids), 20 mmol/L HEPES (Biofluids), 50 ug/mL penicillin and streptomycin (Biofluids), I (g/mL insulin (Sigma, St. Louis), and 10 (moi/L hydrocortisone-hemisuccinate (Sigma). Cells were filtered through sterile gauze, centrifuged at 50×g for 4 minutes, and the resulting cell pellet was washed three times with L-15 medium and resuspended in L-15 medium. 12-well plates were seeded with approximately two-mL of the cell suspension (ca. 10^5 cells). Media on the plated cells were aspirated every two days and replaced with fresh L-15 media.
Serum of four week-old congenitally infected duckling served as the source of virus used in these experiments. Treated and control DHBV spiked red cell samples were serially diluted 10-fold in L-15 medium and one-mL volumes were subsequently inoculated into PDH monolayers in quadruplicate. The infected cultures were incubated at 37° C.+20° C. with 5+1% C02 overnight for virus attachment and entry. The inoculum was then removed, cell monolayers washed once with complete L-15 medium to remove excess red blood cells, and then each well was overlaid with approximately 2-mL of fresh L-15 medium. Infected monolayers were incubated an additional 10-14 days at 37(+20° C. with 5+1% C02, with media changes every 2 days.
We detected the presence of DHB V-infected duck hepatocytes by an IFA. Briefly, the medium from the PDH monolayer was removed by aspiration, and the monolayers washed with agitation for 5-10 minutes with 1-2 mL of phosphate buffered saline (PBS). […]

paraformaldehyde
10.3 pg/mL: HIV p24 protein in culture supernatants (HIV; exposure time 30 minutes, treated HIV diluted 1:80,000, 7 days post-inoculation)
22.6 pg/mL: HIV p24 protein in culture supernatants (HIV; exposure time 30 minutes, treated HIV diluted 1:80,000, 3 days post-inoculation)
27.9 pg/mL: HIV p24 protein in culture supernatants (HIV; exposure time 15 minutes, treated HIV diluted 1:80,000, 3 days post-inoculation)
36.0 pg/mL: HIV p24 protein in culture supernatants (HIV; exposure time 60 minutes, treated HIV diluted 1:80,000, 7 days post-inoculation)
17.5 pg/mL: HIV p24 protein in culture supernatants (HIV; exposure time Overnight, treated HIV diluted 1:80,000, 7 days post-inoculation)
0 FFFUD50/mL (log10): FFFUD50/mL (log10) ([1]; paraformaldehyde column 1) | FFFUD50/mL (log10) ([1]; paraformaldehyde column 2) | FFFUD50/mL (log10) ([1]; paraformaldehyde column 3) | FFFUD50/mL (log10) ([1]; paraformaldehyde column 4)
43.9 pg/mL: HIV p24 protein in culture supernatants (HIV; exposure time 15 minutes, treated HIV diluted 1:8,000, 10 days post-inoculation)
non-detectable: amounts of p24 in the culture supernatants (HIV; treatment of virus with paraformaldehyde, by day 14)
16.3 pg/mL: HIV p24 protein in culture supernatants (HIV; exposure time Overnight, treated HIV diluted 1:80,000, 3 days post-inoculation)
18.0 pg/mL: HIV p24 protein in culture supernatants (HIV; exposure time 15 minutes, treated HIV diluted 1:80,000, 7 days post-inoculation)
>125 pg/mL: HIV p24 protein in culture supernatants (HIV; exposure time 30 minutes, treated HIV diluted 1:8,000, 3 days post-inoculation) | HIV p24 protein in culture supernatants (HIV; exposure time 30 minutes, treated HIV diluted 1:8,000, 7 days post-inoculation) | HIV p24 protein in culture supernatants (HIV; exposure time 60 minutes, treated HIV diluted 1:8,000, 3 days post-inoculation) | HIV p24 protein in culture supernatants (HIV; exposure time 60 minutes, treated HIV diluted 1:8,000, 7 days post-inoculation) | HIV p24 protein in culture supernatants (HIV; exposure time Overnight, treated HIV diluted 1:8,000, 3 days post-inoculation) | HIV p24 protein in culture supernatants (HIV; exposure time Overnight, treated HIV diluted 1:8,000, 7 days post-inoculation)
<7.8 pg/mL: HIV p24 protein in culture supernatants (HIV; exposure time 15 minutes, treated HIV diluted 1:8,000, 14 days post-inoculation) | HIV p24 protein in culture supernatants (HIV; exposure time 15 minutes, treated HIV diluted 1:80,000, 10 days post-inoculation) | HIV p24 protein in culture supernatants (HIV; exposure time 15 minutes, treated HIV diluted 1:80,000, 14 days post-inoculation) | HIV p24 protein in culture supernatants (HIV; exposure time 15 minutes, treated HIV diluted 1:800,000, 3 days post-inoculation) | HIV p24 protein in culture supernatants (HIV; exposure time 15 minutes, treated HIV diluted 1:800,000, 7 days post-inoculation) | HIV p24 protein in culture supernatants (HIV; exposure time 15 minutes, treated HIV diluted 1:800,000, 10 days post-inoculation) | HIV p24 protein in culture supernatants (HIV; exposure time 15 minutes, treated HIV diluted 1:800,000, 14 days post-inoculation) | HIV p24 protein in culture supernatants (HIV; exposure time 30 minutes, treated HIV diluted 1:8,000, 14 days post-inoculation) | HIV p24 protein in culture supernatants (HIV; exposure time 30 minutes, treated HIV diluted 1:80,000, 10 days post-inoculation) | HIV p24 protein in culture supernatants (HIV; exposure time 30 minutes, treated HIV diluted 1:80,000, 14 days post-inoculation) | HIV p24 protein in culture supernatants (HIV; exposure time 30 minutes, treated HIV diluted 1:800,000, 3 days post-inoculation) | HIV p24 protein in culture supernatants (HIV; exposure time 30 minutes, treated HIV diluted 1:800,000, 7 days post-inoculation) | HIV p24 protein in culture supernatants (HIV; exposure time 30 minutes, treated HIV diluted 1:800,000, 10 days post-inoculation) | HIV p24 protein in culture supernatants (HIV; exposure time 30 minutes, treated HIV diluted 1:800,000, 14 days post-inoculation) | HIV p24 protein in culture supernatants (HIV; exposure time 60 minutes, treated HIV diluted 1:8,000, 14 days post-inoculation) | HIV p24 protein in culture supernatants (HIV; exposure time 60 minutes, treated HIV diluted 1:80,000, 10 days post-inoculation) | HIV p24 protein in culture supernatants (HIV; exposure time 60 minutes, treated HIV diluted 1:80,000, 14 days post-inoculation) | HIV p24 protein in culture supernatants (HIV; exposure time 60 minutes, treated HIV diluted 1:800,000, 3 days post-inoculation) | HIV p24 protein in culture supernatants (HIV; exposure time 60 minutes, treated HIV diluted 1:800,000, 7 days post-inoculation) | HIV p24 protein in culture supernatants (HIV; exposure time 60 minutes, treated HIV diluted 1:800,000, 10 days post-inoculation) | HIV p24 protein in culture supernatants (HIV; exposure time 60 minutes, treated HIV diluted 1:800,000, 14 days post-inoculation) | HIV p24 protein in culture supernatants (HIV; exposure time Overnight, treated HIV diluted 1:8,000, 14 days post-inoculation) | HIV p24 protein in culture supernatants (HIV; exposure time Overnight, treated HIV diluted 1:80,000, 10 days post-inoculation) | HIV p24 protein in culture supernatants (HIV; exposure time Overnight, treated HIV diluted 1:80,000, 14 days post-inoculation) | HIV p24 protein in culture supernatants (HIV; exposure time Overnight, treated HIV diluted 1:800,000, 3 days post-inoculation) | HIV p24 protein in culture supernatants (HIV; exposure time Overnight, treated HIV diluted 1:800,000, 7 days post-inoculation) | HIV p24 protein in culture supernatants (HIV; exposure time Overnight, treated HIV diluted 1:800,000, 10 days post-inoculation) | HIV p24 protein in culture supernatants (HIV; exposure time Overnight, treated HIV diluted 1:800,000, 14 days post-inoculation)
46.2 pg/mL: HIV p24 protein in culture supernatants (HIV; exposure time 30 minutes, treated HIV diluted 1:8,000, 10 days post-inoculation)
87.4 pg/mL: HIV p24 protein in culture supernatants (HIV; exposure time 60 minutes, treated HIV diluted 1:8,000, 10 days post-inoculation)
59.8 pg/mL: HIV p24 protein in culture supernatants (HIV; exposure time 60 minutes, treated HIV diluted 1:80,000, 3 days post-inoculation)
27.6 pg/mL: HIV p24 protein in culture supernatants (HIV; exposure time Overnight, treated HIV diluted 1:8,000, 10 days post-inoculation)
